For one experiment, the system named is blood pressure (cat). The experiment is described as follows: Test for the effect on the blood circulation (hypotensive properties, Kannegiesser and Lee). It counts as in vivo. As for the experimental part:
Test for the effect on the blood circulation
The hypotensive properties were examined in accordance with the methods described by Kannegiesser and Lee, Nature 229, 498 (1971).
Test animals were cats of both sexes having a weight of 2.0 to 3.0 kg.
The animals were anesthesized with pentobarbital in an amount of 1.7 to 2.8 mg/ml in 0.9 % NaCl-solution as continuous infusion with 5 mg/kg/hour and pretreated with pentolinium (Ansolysen, May & Baker) with 10 mg/animal by the intraperitoneal route. The test substances were administered through the Vena jugularis. The blood pressure was measured in the A. carotis ext. directly and recorded by means of a Statham pressure sensor on a multi-channel recorder.
The maximum change of the systolic and diastolic blood pressure was measured in mm Hg.
All test preparations were present as stock solutions in absolute alcohol and were diluted to the end concentration immediately before the test beginning in phosphate buffer (pH = 7.4).

Experiment [1] deals with bronchospasm by acetylquoline (Guinea pig). As to the kind of experiment: Bronchospasmolytic activity according to Konzett-Rossler, acetylquoline bronchospasm. In kind it is in vivo. The following applies: Cavia porcellus, iv, irritant acetylquoline, read-out: Bronchospasmolysis ID50, acetylquoline. As for the experimental part: (§1) test of intravenously administered preparations for bronchospasmolytic activity according to Konzett-Rossler.
(§2) Except for irrelevant modifications, the test arrangement used largely corresponded to the description given by H. Konzett and R. Rossler, Arch. exp. Path. Pharmakol. 195, 71 (1940)). Test animals were male white Guinea pigs having a weight of 400 to 500 g. They were anesthesized with hexobarbital and urethane. All preparations to be administered were diluted with phosphate buffer (pH = 7.4) and administered in a volume of 0.1 ml.
(§3) Physiological or pharmacological effects were registered by measuring the air volume in the lung when the maximum blowing pressure was kept constant and a constant volume was maintained by respiration above atmospheric pressure. Capacity modifications in the respiratory tract show themselves in an increase or decrease of the air volume absorbed by the lung under the given constant blowing pressure. To produce a heavy bronchospasm acetylquoline or histamine were injected by the intravenous route. The dosage unit of the irritant was chosen such that an about 70 to 80 % decrease of the absorption capacity of the lung was obtained. The substance to be examined was administered by the intravenous route in the V. jugularis. 30 seconds thereafter the already evaluated dosage unit of the irritant was injected once more. The medium inhibition dose was red off from the dose activity curve drawn either graphically or by means of regression analysis.

Experiment [2] deals with unstriped musculature (isolated rat stomach). As to the kind of experiment: Effect on the unstriped musculature (isolated rat stomach according to Vane). It counts as cell-based, rat (Wistar). The note with it: for EC50: 37° C, activity relative to contraction after 600 ng/ml PGA2, Table 1, read-out: Action on the unstriped musculature (isolated rat stomach) ED50. As for the experimental part:
Effect on the unstriped musculature (isolated rat stomach according to Vane, Br. J. Pharmac. Chemother., 12 344 (1957)).
The test was carried out on Wistar rats of both sexes having a weight of 200 to 220 g. The animals were killed by a blow onto the neck, the stomach was rapidly taken out and put into a Petri dish containing a pre-heated cancer solution. The fundus which is easily to be distinguished from the pyloric part because of its grey color, was separated and opened longitudinally by a longitudinal cut. Transversal cuts in counter-direction to each other led to a stripe which could be hung into the organ bath. The organ bath contained the usual cancer solution which was maintained at a temperature of 37° C and which was risen in bubbles with a mixture of 95 % O2 and 5 % CO2. A writing lever charged with 1 g served to register on a kymograph the contractions produced by adding the substance to be examined to the organ bath. The test criterion was the contraction occurring after the addition of the substance to be examined. The degree of activity was determined by comparing the contraction occurring after 600 ng/ml PGA2. The values expressed in % with regard to the comparison preparation were used to draw a dose-activity-curve which allowed to determine the medium activity dose.
All substances were present as stock-solutions in absolute alcohol and were diluted to their final concentration with phosphate buffer (pH = 7.4).

Experiment [3] deals with bronchospasm by histamine (Guinea pig). As to the kind of experiment: Bronchospasmolytic activity according to Konzett-Rossler, histamine bronchospasm. It counts as in vivo. The note with it: for ED50: Cavia porcellus, iv, Guinea pig, irritant histamine, read-out: Bronchospasmolysis ID50, Histamine. As for the experimental part:
as §1, §2, §3

In brackets after ≈: the same amount, converted by molar mass.

The values below come from patent publication US4078083A, “Novel prostanoic acids” (Hoechst Aktiengesellschaft, priority 1973, dated 1978).

In the case of `CCCCCC(O)/C=C/C1CCC(=O)C1CCCCCC(C)C(=O)O` (mixture of isomers) [Example 8, rac. 15-α-Hydroxy-2-methyl-9-oxo-13-trans-prostenoic Acid], the “Blood pressure (modifications in mm Hg), one value printed (systolic and diastolic not separated)” value with blood pressure (cat) (after 5 μ/kg i.v. (cat)) was found to be 0 mm Hg. For the same compound, in experiment [1], the ED50 was > 10 µg/kg. The EC50 in experiment [2] (isolated rat stomach) was 1.3 µg/mL.
On to `CCCCCC(O)C=C[C@H]1CCC(O)[C@@H]1CC=CCOCC(=O)O` (mixture of isomers) [Example 29 A, rac. 9,15-dihydroxy-3-oxa-5,13-trans-prostadienic acid], for which, in experiment [2] (isolated rat stomach), the “ED50 in the isolated rat stomach” value is 3.1 µg/mL (≈ 9.11 µM).
For `CCCCCC(O)/C=C/C1CCC(=O)C1CCC(C)CCCC(=O)O` (mixture of isomers) [Example 5, rac. 15-α-Hydroxy-5-methyl-9-oxo-13-trans-prostenoic Acid], in the experiment on blood pressure (cat) (after 5 μ/kg i.v. (cat)), the “Blood pressure (modifications in mm Hg), first value (systolic)” value (from here on “Blood pressure … (systolic)”) is listed as -20 mm Hg and the “Blood pressure (modifications in mm Hg), second value (diastolic)” value (shortened to “Blood pressure … (diastolic)”) is reported as -30 mm Hg. Moreover, the blood-pressure lowering activity entry in the experiment on blood pressure (cat) (in words, compared with 15-α-hydroxy-9-oxo-13-trans-prostenoic acid) is “reduced as compared with 15-α-hydroxy-9-oxo-13-trans-prostenoic acid”. Also, in experiment [3] (in words, irritant not specified), the bronchodilating activity entry was “good bronchodilating activity”. The ED50 in experiment [1] stood at 0.4 µg/kg. Moreover, the spasmogen activity result in experiment [2] (in words) is recorded as “good spasmogen activity”. Besides, the EC50 in experiment [2] (isolated rat stomach) amounted to 0.2 µg/mL.
Regarding `CCCCCC(O)/C=C/C1CCC(=O)C1CCCCC(C)CC(=O)O` (mixture of isomers) [Example 7, rac. 15-α-Hydroxy-3-methyl-9-oxo-13-trans-prostenoic Acid], in the experiment with blood pressure (cat) (after 5 μ/kg i.v. (cat)), the “Blood pressure … (systolic)” value is recorded as -10 mm Hg and the “Blood pressure … (diastolic)” value is reported as -20 mm Hg. Moreover, in experiment [3], the ED50 turned out to be 4 µg/kg. Moreover, in experiment [1], the ED50 was determined as 1 µg/kg. Besides, the EC50 in experiment [2] (isolated rat stomach) was determined as 1 µg/mL.
On to `CCCCCC(O)/C=C/C1CCC(=O)C1CCCCCCC(=O)O` (mixture of isomers) [Example 4, rac. 15-α-Hydroxy-9-oxo-13-trans-prostenoic Acid], for which, in the experiment on blood pressure (cat) (at 0.5 μg/kg i.v. (cat)), the “Blood pressure … (systolic)” value is listed as -22 mm Hg and the “Blood pressure … (diastolic)” value was -27 mm Hg. Besides, in experiment [3], the ED50 is 0.1 µg/kg. Besides, in experiment [1], the ED50 was determined as 0.1 µg/kg. The EC50 in experiment [2] (isolated rat stomach) is 0.1 µg/mL.
As to `CCCCCC(O)/C=C/C1CCC(=O)C1CCCC(C)CCC(=O)O` (mixture of isomers) [Example 6, rac. 15-α-Hydroxy-4-methyl-9-oxo-13-trans-prostenoic Acid], the “Blood pressure … (systolic)” value in the experiment on blood pressure (cat) (after 5 μ/kg i.v. (cat)) is -45 mm Hg. In addition, in the experiment on blood pressure (cat) (after 5 μ/kg i.v. (cat)), the “Blood pressure … (diastolic)” value is recorded as -50 mm Hg. The ED50 in experiment [3] came to 0.9 µg/kg; in experiment [1], 0.5 µg/kg. Also, the EC50 in experiment [2] (isolated rat stomach) was found to be 0.5 µg/mL.
